These are literature values, as cited in US8835508B2, “Stable aqueous solution containing sodium pyruvate, and the preparation and use thereof” (priority 2006, dated 2014).

Like-named read-outs stand apart in the source and are kept apart here.

The conditions of the data set: for content of dimer: 3.0 M (3,000 mM) pure NaPyr in water, room temperature.

As to `CC(=O)C(=O)[O-].[Na+]` [NaPyr, sodium pyruvate], the content of dimer (pH 7.3, after 24 hours) is 9.1% and the content of dimer (pH 7.3, after 48 hours) is 18.4%. The “stability of aqueous solution containing NaPyr” value (22° C., pH >6.0, HPLC and NMR) is “unstable”.
